Measurements: patent US11058659B2, “Methods and compositions for the treatment of ophalmic diseases and disorders” (UNIVERSITY OF SOUTHERN CALIFORNIA, priority 2013, dated 2021)
Entries after “also recorded” stand apart in the source; their conditions may differ.

Columns and labels:
CNV lesions = assay: choroidal neovascularization (CNV) model of age-related macular degeneration (AMD), laser induced lesions supplemented with VEGF; type: in vivo; conditions: for CNV lesion number: week 4 of therapy, vs vehicle control; for vessels and edema in the CNV lesions (retinal angiography): by week 4, vs vehicle
Method: FIG. 4. Effect of compound 18 in a choroidal neovascularization (CNV) model of age-related macular degeneration (AMD). (A) Study Design: Simultaneous treatment model. Choroidal neovascularization (CNV) model, was used to determine its effect on new blood vessel formation. In this figure, laser induced lesions were further supplemented with 10 μg VEGF intravitreal administration every two weeks. Laser induced AMD lesions penetrated the Bruch's membrane. CNV lesions were treated with 0.5 mg compound 18 administered weekly, where first dosage was given at the time of CNV lesion formation. (B) Results.
FIG. 5. Effect of compound 18 in a choroidal neovascularization (CNV) model of age-related macular degeneration (AMD) A) Study Design: Sequential treatment model. CNV model was used to determine compound 18's effect on new blood vessel formation. Laser induced lesions were supplemented with 10 μg VEGF intravitreal administration every two weeks. CNV lesions were treated with 0.5 mg compound 18 administered weekly, were given one week after CNV lesion formation. (B) Results.
FIG. 6. Quantification of the Lesion Number and Mean Area. CNV lesions were enumerated at baseline, 2 and 4 weeks after CNV lesion formation. (A) Lesion Number. […] (B) Mean Area.
FIG. 8. Optical Coherence Tomography (OCT) of CNV Lesions Over Time. OCT was used to evaluate CNV lesion healing after compound 18 treatment.
FIG. 9. Confocal Scanning Fluorescent Microscope of CNV Lesions. Confocal scanning fluorescent microscopy is used to visualize the level of neovascular growth. In the vehicle treated lesions (Left), extensive neovascular growth is noted after one month.
FIG. 10. Confocal Scanning Electron Microscopy of CNV lesions treated with vehicle (Left) was compared with compound 18 treatment (Right).
(§1) Compound 18 was prepared using methods known in the art. (For example, see U.S. Pat. Nos. 8,115,023, and 7,683,193). […] (FIG. 3). On Day 7, retinal edema and angiogenesis between the two treatment groups were similar.

[1] = system: human mammary endothelial cells (HMEC); assay: tube formation assay (HMEC cultured in Geltrex); type: cell-based; conditions: 24 hours, concentration escalation, at greater than 100 nM, compared to untreated or no Geltrex
Method: FIG. 1. Inhibition of angiogenesis by compound 18 in a dose-dependent manner—Effect on tube formation. The effect of Compound 18 was evaluated using tube formation assay using a concentration escalation design.
as §1

cyclooxygenase-2 (COX-2) = assay: RT-PCR of CNV lesions after treatment: COX-2; type: in vivo
Method: (§2) FIG. 7. RT-PCR Data of CNV after treatment. Reduced expression of pro-angiogenic and pro-inflammatory proteins upon treatment with compound 18.
as §1

[2] = system: VEGF-induced angiogenesis; assay: VEGF-induced angiogenesis in a rabbit eye model; type: in vivo
Method: FIG. 2. Inhibition of angiogenesis by compound 18 in a dose-dependent manner—Effect on VEGF-induced angiogenesis in a rabbit eye model. (A) Study design. To evaluate the impact of compound 18, 10 μg of VEGF in each eye is administered as an intravitreal injection. In this study, the activity of compound 18 is evaluated in a concentration escalation manner from 0.125 to 0.5 mg given as a single dosage. A formulation of compound 18 where the dosage is admixed in a total of 50 μL, was administered immediately after VEGF administration. (B) Results.
FIG. 3. Comparison of compound 18 with bevacizumab (Avastin)—Effect on VEGF-induced angiogenesis in a rabbit eye model. The potency of compound 18 was compared with bevacizumab. (A) Study design. Using a VEGF-induction eye model, where 10 μg of VEGF is injected as an intravitreal administration. One dose of 0.5 mg of compound 18 was compared with 1.25 mg bevacizumab after VEGF induction. (B) Results. […] On Day 7, retinal edema and angiogenesis between the two treatment groups were similar.
as §1

VEGF receptor 2 = assay: RT-PCR of CNV lesions after treatment: VEGF receptor 2; type: in vivo
Method: as §2, §1

[3] = Day 7, 10 μg VEGF intravitreal, one dose

CCCCC[C@@H](O)/C=C/c1cccc(/C=C/[C@@H](O)[C@@H](O)CCCC(=O)OC)c1 [Compound 18]
neovascular growth in CNV lesions (confocal scanning fluorescent microscopy) (CNV lesions; after one month, vs vehicle treated lesions): significant reduction in neovascular growth
CNV lesion healing by Optical Coherence Tomography (OCT) (CNV lesions; same lesion evaluated at 2 weeks and 4 weeks): able to promote healing of a lesion
mean CNV area (CNV lesions; sequential (SQ) treatment): reduction in the mean CNV area
CNV lesion number (CNV lesions; sequential (SQ) treatment): significantly reduced CNV lesion
vessels and edema in the CNV lesions (retinal angiography) (CNV lesions; sequential treatment model, 0.5 mg weekly starting one week after lesion formation): statistically significant reduction in the vessels and edema
mean CNV area (CNV lesions; simultaneous (SM) treatment): reduction in the mean CNV area
CNV lesion number (CNV lesions; simultaneous (SM) treatment): significantly reduced CNV lesion
vessels and edema in the CNV lesions (retinal angiography) (CNV lesions; simultaneous treatment model, 0.5 mg weekly from time of lesion formation): statistically significant reduction in the vessels and edema
morphology of CNV lesions (Confocal Scanning Electron Microscopy) (CNV lesions; vs vehicle (neovascular growth penetrating the Bruch's membrane)): thin-walled fenestrated vascular channels with flat configuration
inhibition of tube formation (angiogenesis) [1]: able to inhibit angiogenesis in a dose-response manner; also recorded: notable inhibition of tube formation
expression of cyclooxygenase-2 (COX-2) (RT-PCR) (cyclooxygenase-2 (COX-2); sequential (SQ) treatment): significantly reduced the expression
expression of cyclooxygenase-2 (COX-2) (RT-PCR) (cyclooxygenase-2 (COX-2); simultaneous (SM) treatment): significantly reduced the expression
activity profile vs Avastin ([2]; 0.5 mg compound 18 vs 1.25 mg Avastin, Day 3 and Day 7 findings): comparable or improved activity profile vs Avastin
retinal edema and angiogenesis, 0.5 mg compound 18 compared to 1.25 mg bevacizumab ([2]; Day 3, 10 μg VEGF intravitreal, one dose): significantly lower retinal edema and angiogenesis
retinal edema and angiogenesis between the two treatment groups (0.5 mg compound 18 vs 1.25 mg bevacizumab) [2, 3]: similar
level of retinal edema and angiogenesis vs vehicle ([2]; Day 7, 10 μg VEGF intravitreal, single dose, doses >0.25 mg (0.125 to 0.5 mg tested)): significantly reduced
expression of VEGF receptor 2 (RT-PCR) (VEGF receptor 2; sequential (SQ) treatment): significantly reduced the expression
expression of VEGF receptor 2 (RT-PCR) (VEGF receptor 2; simultaneous (SM) treatment): significantly reduced the expression

bevacizumab: FDA-approved anti-VEGF antibody injected intravitreally [reference compound]
retinal edema and angiogenesis between the two treatment groups (0.5 mg compound 18 vs 1.25 mg bevacizumab) [2, 3]: similar
